Test results as given in the NIST ThermoML archive (doi:10.1021/acs.jced.7b01125).
± gives the expanded uncertainty stated by the source.

Assay: xn = mol fraction of the nth substance listed
Conditions: Gas, Buoyancy - hydrostatic balance with magnetic suspension - one sinker

[HH] [hydrogen] + C
Conditions | mass density [kg/m3]
250.05 K, 1999 kPa, x2 = 0.9 | 14.843 ± 0.047
250.05 K, 8002 kPa, x2 = 0.9499 | 76.259 ± 0.069
250.05 K, 10007 kPa, x2 = 0.9499 | 101.135 ± 0.074
250.05 K, 11012 kPa, x2 = 0.9499 | 113.948 ± 0.075
250.05 K, 12006 kPa, x2 = 0.9 | 113.812 ± 0.071
250.05 K, 12009 kPa, x2 = 0.9499 | 126.528 ± 0.076
250.05 K, 13012 kPa, x2 = 0.9 | 124.698 ± 0.072
250.05 K, 13015 kPa, x2 = 0.9499 | 138.84 ± 0.075
250.05 K, 14014 kPa, x2 = 0.9 | 135.178 ± 0.073
250.05 K, 14017 kPa, x2 = 0.9499 | 150.503 ± 0.073
250.05 K, 15015 kPa, x2 = 0.9 | 145.138 ± 0.073
250.05 K, 15015 kPa, x2 = 0.9499 | 161.379 ± 0.072
250.05 K, 16007 kPa, x2 = 0.9499 | 171.395 ± 0.07
250.05 K, 16018 kPa, x2 = 0.9 | 154.622 ± 0.072
250.05 K, 17011 kPa, x2 = 0.9 | 163.416 ± 0.072
250.05 K, 17022 kPa, x2 = 0.9499 | 180.83 ± 0.069
250.05 K, 18018 kPa, x2 = 0.9 | 171.725 ± 0.071
250.05 K, 18020 kPa, x2 = 0.9499 | 189.342 ± 0.068
250.05 K, 18962 kPa, x2 = 0.9499 | 196.737 ± 0.069
250.05 K, 19023 kPa, x2 = 0.9 | 179.463 ± 0.071
250.05 K, 19940 kPa, x2 = 0.9 | 186.044 ± 0.06
260.03 K, 1002 kPa, x2 = 0.4997 | 4.206 ± 0.032
260.03 K, 1977 kPa, x2 = 0.4997 | 8.33 ± 0.033
260.03 K, 3002 kPa, x2 = 0.4997 | 12.694 ± 0.035
260.03 K, 4002 kPa, x2 = 0.4997 | 16.974 ± 0.037
260.03 K, 5000 kPa, x2 = 0.4997 | 21.26 ± 0.04
260.03 K, 6003 kPa, x2 = 0.4997 | 25.579 ± 0.043
260.03 K, 7000 kPa, x2 = 0.4997 | 29.878 ± 0.047
260.03 K, 8000 kPa, x2 = 0.4997 | 34.185 ± 0.052
260.03 K, 9003 kPa, x2 = 0.4997 | 38.489 ± 0.057
260.03 K, 10005 kPa, x2 = 0.4997 | 42.775 ± 0.063
260.03 K, 11002 kPa, x2 = 0.4997 | 47.008 ± 0.069
260.03 K, 12008 kPa, x2 = 0.4997 | 51.246 ± 0.075
260.03 K, 13002 kPa, x2 = 0.4997 | 55.387 ± 0.082
260.03 K, 14009 kPa, x2 = 0.4997 | 59.544 ± 0.088
260.03 K, 15005 kPa, x2 = 0.4997 | 63.583 ± 0.094
260.03 K, 16009 kPa, x2 = 0.4997 | 67.621 ± 0.1
260.03 K, 17009 kPa, x2 = 0.4997 | 71.57 ± 0.1
260.03 K, 18006 kPa, x2 = 0.4997 | 75.418 ± 0.11
260.03 K, 19113 kPa, x2 = 0.4997 | 79.651 ± 0.11
260.04 K, 999 kPa, x2 = 0.9499 | 7.267 ± 0.045
260.04 K, 1000 kPa, x2 = 0.9 | 6.927 ± 0.043
260.04 K, 1999 kPa, x2 = 0.9499 | 14.926 ± 0.047
260.04 K, 2000 kPa, x2 = 0.9 | 14.169 ± 0.045
260.04 K, 2999 kPa, x2 = 0.9499 | 23.006 ± 0.049
260.04 K, 3001 kPa, x2 = 0.9 | 21.762 ± 0.047
260.04 K, 3999 kPa, x2 = 0.9499 | 31.515 ± 0.052
260.04 K, 5000 kPa, x2 = 0.9499 | 40.497 ± 0.054
260.04 K, 5999 kPa, x2 = 0.9499 | 49.941 ± 0.057
260.04 K, 6001 kPa, x2 = 0.9 | 46.626 ± 0.054
260.04 K, 7001 kPa, x2 = 0.9 | 55.622 ± 0.056
260.04 K, 7002 kPa, x2 = 0.9499 | 59.886 ± 0.06
260.04 K, 8003 kPa, x2 = 0.9 | 64.951 ± 0.058
260.04 K, 8003 kPa, x2 = 0.9499 | 70.258 ± 0.062
260.04 K, 9004 kPa, x2 = 0.9 | 74.538 ± 0.06
260.04 K, 9006 kPa, x2 = 0.9499 | 81.038 ± 0.064
260.04 K, 10006 kPa, x2 = 0.9 | 84.334 ± 0.062
260.04 K, 10006 kPa, x2 = 0.9499 | 92.073 ± 0.067
260.04 K, 11008 kPa, x2 = 0.9 | 94.232 ± 0.064
260.04 K, 11011 kPa, x2 = 0.9499 | 103.316 ± 0.068
260.04 K, 12013 kPa, x2 = 0.9499 | 114.514 ± 0.069
260.04 K, 13017 kPa, x2 = 0.9499 | 125.55 ± 0.069
260.04 K, 14016 kPa, x2 = 0.9499 | 136.214 ± 0.069
260.04 K, 15018 kPa, x2 = 0.9499 | 146.448 ± 0.068
260.04 K, 16023 kPa, x2 = 0.9499 | 156.169 ± 0.067
260.04 K, 17019 kPa, x2 = 0.9499 | 165.22 ± 0.066
260.04 K, 18026 kPa, x2 = 0.9499 | 173.779 ± 0.066
260.04 K, 18756 kPa, x2 = 0.9499 | 179.616 ± 0.069
260.05 K, 4000 kPa, x2 = 0.9 | 29.682 ± 0.049
260.05 K, 5000 kPa, x2 = 0.9 | 37.974 ± 0.051
260.05 K, 12009 kPa, x2 = 0.9 | 104.112 ± 0.065
260.05 K, 13009 kPa, x2 = 0.9 | 113.883 ± 0.066
260.05 K, 14013 kPa, x2 = 0.9 | 123.483 ± 0.066
260.05 K, 15017 kPa, x2 = 0.9 | 132.774 ± 0.067
260.05 K, 16016 kPa, x2 = 0.9 | 141.654 ± 0.067
260.05 K, 17013 kPa, x2 = 0.9 | 150.096 ± 0.068
260.05 K, 17614 kPa, x2 = 0.9 | 154.98 ± 0.072
275 K, 1001 kPa, x2 = 0.4997 | 3.964 ± 0.031
275 K, 2001 kPa, x2 = 0.4997 | 7.947 ± 0.032
275 K, 3002 kPa, x2 = 0.4997 | 11.95 ± 0.034
275 K, 4001 kPa, x2 = 0.4997 | 15.957 ± 0.035
275 K, 5001 kPa, x2 = 0.4997 | 19.969 ± 0.037
275 K, 6001 kPa, x2 = 0.4997 | 23.987 ± 0.041
275 K, 7001 kPa, x2 = 0.4997 | 27.997 ± 0.044
275 K, 8001 kPa, x2 = 0.4997 | 31.996 ± 0.048
275 K, 9003 kPa, x2 = 0.4997 | 35.989 ± 0.052
275 K, 10000 kPa, x2 = 0.4997 | 39.943 ± 0.057
275 K, 12001 kPa, x2 = 0.4997 | 47.79 ± 0.066
275 K, 13004 kPa, x2 = 0.4997 | 51.668 ± 0.071
275.01 K, 999 kPa, x2 = 0.9499 | 6.842 ± 0.043
275.01 K, 1000 kPa, x2 = 0.9 | 6.522 ± 0.041
275.01 K, 1999 kPa, x2 = 0.9499 | 13.98 ± 0.044
275.01 K, 2001 kPa, x2 = 0.9 | 13.293 ± 0.043
275.01 K, 2997 kPa, x2 = 0.9499 | 21.412 ± 0.046
275.01 K, 3001 kPa, x2 = 0.9 | 20.304 ± 0.044
275.01 K, 4001 kPa, x2 = 0.9 | 27.568 ± 0.046
275.01 K, 4002 kPa, x2 = 0.9499 | 29.206 ± 0.048
275.01 K, 5002 kPa, x2 = 0.9499 | 37.281 ± 0.05
